Results published in patent publication US9556179B2 (BRISTOL-MYERS SQUIBB COMPANY, priority 2012, dated 2017).
Where a name gives a salt, the structure may show the parent alone.

How the values were obtained:
CK1δ = CK1δ (Homo sapiens (Human), UniProt P48730); test: CK1δ kinase assay (Caliper LABCHIP electrophoretic separation of fluoresceinated peptide substrate and product); assay type: biochemical; conditions: 200 pM enzyme, 50 μM ATP, 22 hours at room temperature
Method in brief: (§1)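 Each reaction was incubated 22 hours at room temperature and terminated with EDTA. Read-out was microfluidic electrophoretic separation of fluoresceinated substrate and phospho-product.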

CK1ε = CK1ε (Homo sapiens (Human), UniProt P49674); test: CK1ε kinase assay (Caliper LABCHIP electrophoretic separation of fluoresceinated peptide substrate and product); assay type: biochemical; conditions: 200 pM enzyme, 50 μM ATP, 22 hours at room temperature
Method in brief: as §1

Chain of CK1ε (P49674 whole entry): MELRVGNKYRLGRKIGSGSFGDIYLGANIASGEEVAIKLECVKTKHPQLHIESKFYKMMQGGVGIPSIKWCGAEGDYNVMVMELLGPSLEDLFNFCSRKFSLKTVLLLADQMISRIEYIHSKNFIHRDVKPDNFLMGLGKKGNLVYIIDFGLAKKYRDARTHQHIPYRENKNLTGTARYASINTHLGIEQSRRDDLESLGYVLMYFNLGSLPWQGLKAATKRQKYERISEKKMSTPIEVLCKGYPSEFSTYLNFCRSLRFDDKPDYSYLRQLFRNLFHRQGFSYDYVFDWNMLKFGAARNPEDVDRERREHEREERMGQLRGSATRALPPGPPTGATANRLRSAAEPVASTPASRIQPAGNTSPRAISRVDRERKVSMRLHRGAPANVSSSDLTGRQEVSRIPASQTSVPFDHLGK
Chain of CK1δ (P48730 whole entry): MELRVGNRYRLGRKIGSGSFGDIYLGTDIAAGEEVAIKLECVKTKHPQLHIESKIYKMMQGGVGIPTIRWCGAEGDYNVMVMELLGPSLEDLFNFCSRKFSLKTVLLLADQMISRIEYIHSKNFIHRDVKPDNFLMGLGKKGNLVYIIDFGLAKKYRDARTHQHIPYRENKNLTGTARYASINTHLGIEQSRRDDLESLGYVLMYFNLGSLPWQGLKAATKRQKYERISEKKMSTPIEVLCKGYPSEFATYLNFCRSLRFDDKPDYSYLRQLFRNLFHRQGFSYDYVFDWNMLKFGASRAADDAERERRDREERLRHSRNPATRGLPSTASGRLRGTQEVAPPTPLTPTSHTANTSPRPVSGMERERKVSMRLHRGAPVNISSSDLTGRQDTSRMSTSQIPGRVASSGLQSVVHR

| Compound | IC50 (CK1δ) [nM] | IC50 (CK1ε) [nM] |
| --- | --- | --- |
| Cc1nc(-c2cccnc2)sc1C(=O)Nc1cn2nc(-c3c(-c4ccc(F)cc4)ncn3CCN3CCOCC3)ccc2n1 [Compound 163, N-(6-(4-(4-fluorophenyl)-1-(2-morpholinoethyl)-1H-imidazol-5-yl)imidazo [1,2-b]pyridazin-2-yl)-4-methyl-2-(pyridin-3-yl) thiazole-5-carboxamide] | 0.242 | 0.936 |
| O=C(Nc1cn2nc(-c3c(-c4ccc(F)cc4)ncn3C3CCN(C(=O)c4cscn4)CC3)ccc2n1)c1ccnc(F)c1 [Compound 44, 2-fluoro-N-(6-(4-(4-fluorophenyl)-1-(1-(thiazole-4-carbonyl)piperidin-4-yl)-1H-imidazol-5-yl)imidazo[1,2-b]pyridazin-2-yl)isonicotinamide] | 0.295 | 1.23 |
| COCCn1cnc(-c2ccc(F)cc2)c1-c1ccc2nc(NC(=O)C(C)(C)C)cn2n1 [Compound 280, N-(6-(4-(4-fluorophenyl)-1-(2-methoxy-ethyl)-1H-imidazol-5-yl)imidazo[1,2-b]pyridazin-2-yl)pivalamide] | 0.52 | 2.49 |
| O=C(Nc1cn2nc(-c3c(-c4ccc(F)cc4)ncn3CCOCC(F)(F)F)ccc2n1)c1ccnc(F)c1 [Compound 252, 2-fluoro-N-(6-(4-(4-fluorophenyl)-1-(2-(2,2,2-trifluoroethoxy)ethyl)-1H-imidazol-5-yl)imidazo[1,2-b]pyridazin-2-yl)isonicotinamide] | 0.347 | 2.51 |
| O=C(Nc1cn2nc(-c3c(-c4ccc(F)cc4)ncn3CCN3CCOCC3)ccc2n1)c1cccc(-c2cccnc2)c1 [Compound 167, N-(6-(4-(4-fluorophenyl)-1-(2-morpholinoethyl)-1H-imidazol-5-yl)imidazo[1,2-b]pyridazin-2-yl)-3-(pyridin-3-yl)benzamide] | 0.104 | 0.687 |
| Cc1nc(C(=O)Nc2cn3nc(-c4c(-c5ccc(F)cc5)nc(C)n4C)ccc3n2)c[nH]1 [Compound 372, N-(6-(4-(4-fluorophenyl)-1,2-dimethyl-1H-imidazol-5-yl)imidazo[1,2-b]pyridazin-2-yl)-2-methyl-1H-imidazole-4-carboxamide] | 2.19 | 28.3 |
| Cn1ccc(Cn2cnc(-c3ccc(F)cc3)c2-c2ccc3nc(NC(=O)c4ccnc(F)c4)cn3n2)n1 [Compound 269, 2-fluoro-N-(6-(4-(4-fluorophenyl)-1-((1-methyl-1H-pyrazol-3-yl)methyl)-1H-imidazol-5-yl)imidazo[1,2-b]pyridazin-2-yl) isonicotinamide] | 1.08 | 9.39 |
| Cc1nc(-c2ccc(F)cc2)c(-c2ccc3nc(NC(=O)c4cc(C(C)(C)C)ncn4)cn3n2)n1C [Compound 400, 6-(tert-butyl)-N-(6-(4-(4-fluorophenyl)-1,2-dimethyl-1H-imidazol-5-yl)imidazo[1,2-b]pyridazin-2-yl) pyrimidine-4-carboxamide] | 6.76 | 23.3 |
| O=C(Nc1cn2nc(-c3c(-c4ccc(F)cc4)nc4n3CCCC4)ccc2n1)c1ccnc(N2CCOCC2)c1 [Compound 443, N-(6-(2-(4-Fluorophenyl)-5,6,7,8-tetrahydroimidazo[1,2-a]pyridin-3-yl)imidazo[1,2-b]pyridazin-2-yl)-2-morpholinoisonicotinamide] | 0.4 | 2.7 |
| CC1(C)CC1C(=O)N1CCn2c(nc(-c3ccc(F)cc3)c2-c2ccc3nc(NC(=O)c4ccnc(F)c4)cn3n2)C1 (stereo not drawn) [Compound 473, N-(6-(7-(2,2-Dimethylcyclopropanecarbonyl)-2-(4-fluorophenyl)-5,6,7,8-tetrahydroimidazo[1,2-a]pyrazin-3-yl)imidazo[1,2-b]pyridazin-2-yl)-2-fluoroisonicotinamide] | 0.5 | 2.9 |
| O=C(Nc1cn2nc(-c3c(-c4ccc(F)cc4)ncn3CCN3CCC(F)(F)CC3)ccc2n1)c1ccnc(F)c1 [Compound 251, N-(6-(1-(2-(4,4-difluoro-1-piperi-dinyl)ethyl)-4-(4-fluorophenyl)-1H-imidazol-5-yl)imidazo[1,2-b]pyridazin-2-yl)-2-fluoroiso-nicotinamide] | 0.385 | 5.38 |
| O=C(Nc1cn2nc(-c3c(-c4ccc(F)cc4)ncn3CC(=O)N3CCOCC3)ccc2n1)c1ccnc(F)c1 [Compound 266, 2-fluoro-N-(6-(4-(4-fluorophenyl)-1-(2-(4-morpholinyl)-2-oxoethyl)-1H-imidazol-5-yl)imidazo[1,2-b]pyridazin-2-yl)isonicotinamide] | 0.416 | 14.1 |
| O=C(Nc1cn2nc(-c3c(-c4ccc(F)cc4)ncn3C3CCN(C(=O)OCC(F)(F)F)CC3)ccc2n1)c1ccnc(F)c1 [Compound 85, 2,2,2-trifluoroethyl 4-(5-(2-(2-fluoroisonicotinamido)imidazo[1,2-b]pyridazin-6-yl)-4-(4-fluorophenyl)-1H-imidazol-1-yl)piperidine-1-carboxylate] | 0.309 | 2.34 |
| O=C(Nc1cn2nc(-c3c(-c4ccc(F)cc4)ncn3CCCn3ccnc3)ccc2n1)c1ccnc(F)c1 [Compound 263, 2-fluoro-N-(6-(4-(4-fluorophenyl)-1-(3-(1H-imidazol-1-yl)propyl)-1H-imidazol-5-yl)imidazo[1,2-b]pyridazin-2-yl)isonicotinamide] | 0.436 | 5.4 |
| N#CCC(=O)Nc1cn2nc(-c3c(-c4ccc(F)cc4)ncn3CCN3CCOCC3)ccc2n1 [Compound 164, 2-cyano-N-(6-(4-(4-fluorophenyl)-1-(2-morpholinoethyl)-1H-imidazol-5-yl)imidazo [1,2-b]pyridazin-2-yl) acetamide] | 4.37 | 67.3 |
| O=C(Nc1cn2nc(-c3c(-c4ccc(F)cc4)nc(C4CC4)n3C3CCN(C4COC4)CC3)ccc2n1)c1ccnc(F)c1 [Compound 132, N-(6-(2-cyclopropyl-4-(4-fluorophenyl)-1-(1-(oxetan-3-yl)piperidin-4-yl)-1H-imidazol-5-yl)imidazo[1,2-b]pyridazin-2-yl)-2-fluoroisonicotinamide] | 1.7 | 14.2 |
| Cc1nc(-c2ccc(F)cc2)c(-c2ccc3nc(NC(=O)c4ccnc(F)c4)cn3n2)n1C1CCN(CCC(F)(F)F)CC1 [Compound 145, 2-fluoro-N-(6-(4-(4-fluorophenyl)-2-methyl-1-(1-(3,3,3-trifluoropropyl)piperidin-4-yl)-1H-imidazol-5-yl)imidazo[1,2-b]pyridazin-2-yl)isonicotinamide] | 0.962 | 9.51 |
| Cc1c[nH]c(C(=O)Nc2cn3nc(-c4c(-c5ccc(F)cc5)nc(C)n4C)ccc3n2)c1 [Compound 338, N-(6-(4-(4-fluorophenyl)-1,2-dimethyl-1H-imidazol-5-yl)imidazo[1,2-b]pyridazin-2-yl)-4-methyl-1H-pyrrole-2-carboxamide] | 0.368 | 0.768 |
| O=C1CN(CCn2cnc(-c3ccc(F)cc3)c2-c2ccc3nc(NC(=O)c4ccnc(F)c4)cn3n2)CCN1 [Compound 267, 2-fluoro-N-(6-(4-(4-fluorophenyl)-1-(2-(3-oxo-1-piperazinyl)ethyl)-1H-imidazol-5-yl)imidazo[1,2-b]pyridazin-2-yl)isonicotinamide] | 0.287 | 1.77 |

Other lines, results leading:

| IC50 (CK1δ) [nM] | IC50 (CK1ε) [nM] | Compound |
| --- | --- | --- |
| 0.447 | 3.68 | O=C(Nc1cn2nc(-c3c(-c4ccc(F)cc4)nc4ccccn34)ccc2n1)c1ccnc(N2CCOCC2)c1 [Compound 203, N-(6-(2-(4-fluorophenyl)imidazo[1,2-a]pyridin-3-yl)imidazo[1,2-b]pyridazin-2-yl)-2-morpholinoisonicotinamide] |
| 4.01 | 10.8 | Cn1ccc(C(=O)Nc2cn3nc(-c4c(-c5ccc(F)cc5)nc5ccccn45)ccc3n2)n1 [Compound 181, N-(6-(2-(4-fluorophenyl)imidazo[1,2-a]pyridin-3-yl)imidazo[1,2-b]pyridazin-2-yl)-1-methyl-1H-pyrazole-3-carboxamide] |
| 3.9 | 4.4 | Cc1nc(-c2ccc(F)cc2)c(-c2ccc3nc(NC(=O)c4cncs4)cn3n2)n1C [Compound 303, N-(6-(4-(4-fluorophenyl)-1,2-dimethyl-1H-imidazol-5-yl)imidazo[1,2-b]pyridazin-2-yl)thiazole-5-carboxamide] |
| 0.603 | 4.87 | O=C(Nc1cn2nc(-c3c(-c4ccc(F)cc4)nc4ccccn34)ccc2n1)c1ccnc(O)c1 [Compound 195, N-(6-(2-(4-fluorophenyl)imidazo[1,2-a]pyridin-3-yl)imidazo[1,2-b]pyridazin-2-yl)-2-hydroxyisonicotinamide] |
| 17.1 | 32.1 | COc1ccc(-c2nc(C(=O)Nc3cn4nc(-c5c(-c6ccc(F)cc6)nc6ccccn56)ccc4n3)cs2)cc1 [Compound 189, N-(6-(2-(4-fluorophenyl)imidazo[1,2-a]pyridin-3-yl)imidazo[1,2-b]pyridazin-2-yl)-2-(4-methoxyphenyl) thiazole-4-carboxamide, 3 HCl] |
| 3.88 | 34.6 | O=C(Nc1cn2nc(-c3c(-c4ccc(F)cc4)nc4ccccn34)ccc2n1)c1ccnc(C(F)(F)F)c1 [Compound 198, N-(6-(2-(4-fluorophenyl)imidazo[1,2-a]pyridin-3-yl)imidazo[1,2-b]pyridazin-2-yl)-2-(trifluoromethyl) isonicotinamide] |
| 1.12 | 16.2 | Cc1nc(-c2ccc(F)cc2)c(-c2ccc3nc(NC(=O)c4cnn[nH]4)cn3n2)n1C [Compound 370, N-(6-(4-(4-fluorophenyl)-1,2-dimethyl-1H-imidazol-5-yl)imidazo[1,2-b]pyridazin-2-yl)-1H-1,2,3-trizole-4-carboxamide] |
| 200 | 1520 | Cc1nnsc1C(=O)Nc1cn2nc(-c3c(-c4ccc(F)cc4)nc4ccccn34)ccc2n1 [Compound 178, N-(6-(2-(4-fluorophenyl)imidazo[1,2-a]pyridin-3-yl)imidazo[1,2-b]pyridazin-2-yl)-4-methyl-1,2,3-thiadiazole-5-carboxamide] |
